In PubChem BioAssay (NCI):
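Exposure lasted 48 hours, with cells grown in 96-well plates and compounds tested at five concentrations. The concentration for full growth arrest is given as TGI.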

Columns and labels:
Test in all cases: NCI-60 cell line screen, 48 h
[1] = tested on: SNB-75 CNS
[2] = tested on: SK-OV-3 ovarian
[3] = tested on: NCI-H226 lung
[4] = tested on: M14 melanoma
[5] = tested on: OVCAR-4 ovarian
[6] = tested on: U251 CNS
[7] = tested on: SR leukemia
[8] = tested on: T-47D breast
[9] = tested on: IGROV1 ovarian
[10] = tested on: KM12 colon
[11] = tested on: HOP-62 NSCLC
[12] = tested on: HL-60(TB) leukemia
[13] = tested on: OVCAR-8 ovarian
[14] = tested on: 786-0 renal
[15] = tested on: MOLT-4 leukemia
[16] = tested on: SF-295 CNS
[17] = tested on: HCT-15 colon
[18] = tested on: NCI-H522 lung
[19] = tested on: EKVX NSCLC
[20] = tested on: DU-145 prostate
[21] = tested on: NCI-H460 lung
[22] = tested on: SK-MEL-28 melanoma
[23] = tested on: BT-549 breast
[24] = tested on: MALME-3M melanoma
[25] = tested on: HCT-116 colon
[26] = tested on: SNB-19 CNS
[27] = tested on: SF-268 CNS
[28] = tested on: CAKI-1 renal
[29] = tested on: MCF7 breast
[30] = tested on: PC-3 prostate
[31] = tested on: MDA-MB-231 breast
[32] = tested on: MDA-N
[33] = tested on: COLO 205 colon
[34] = tested on: A549 NSCLC
[35] = tested on: HT29 colon
[36] = tested on: CCRF-CEM leukemia
[37] = tested on: NCI-H23 lung
[38] = tested on: ACHN renal
[39] = tested on: RXF 393 renal
[40] = tested on: K-562 leukemia
[41] = tested on: SK-MEL-5 melanoma
[42] = tested on: LOX IMVI melanoma
[43] = tested on: HS 578T breast
[44] = tested on: MDA-MB-435
[45] = tested on: HCC-2998 colon
[46] = tested on: UACC-257 melanoma
[47] = tested on: OVCAR-3 ovarian
[48] = tested on: SN12C renal
[49] = tested on: OVCAR-5 ovarian
[50] = tested on: UO-31 renal
[51] = tested on: A498 renal
[52] = tested on: UACC-62 melanoma
[53] = tested on: HOP-92 NSCLC
[54] = tested on: TK-10 renal
[55] = tested on: NCI/ADR-RES ovarian
[56] = tested on: SW-620 colon
[57] = tested on: RPMI-8226 leukemia
[58] = tested on: SF-539 CNS
[59] = tested on: SK-MEL-2 melanoma

With `CC1(C)[C@@H](Cn2cnc3c(N)ncnc32)CC[C@@]1(C)CO` the TGI [1] was over 100 µM, the TGI [2] was over 100 µM and the TGI [3] was over 100 µM. It also gave a TGI [4] of over 100 µM, a TGI [5] of over 100 µM and a TGI [6] of over 100 µM. For the same compound, the TGI [7] was 76.8 µM, the TGI [8] was over 100 µM and the TGI [9] was over 100 µM. It also gave a TGI [10] of over 100 µM, a TGI [11] of over 100 µM and a TGI [12] of over 100 µM. For the same compound, the TGI [13] was over 100 µM, the TGI [14] was over 100 µM and the TGI [15] was over 100 µM. The TGI [16] was over 100 µM, the TGI [17] was over 100 µM and the TGI [18] was over 100 µM. For the same compound, the TGI [19] was over 100 µM, the TGI [20] was over 100 µM and the TGI [21] was over 100 µM. It also gave a TGI [22] of over 100 µM, a TGI [23] of over 100 µM and a TGI [24] of over 100 µM. It also gave a TGI [25] of over 100 µM, a TGI [26] of over 100 µM and a TGI [27] of over 100 µM. It also gave a TGI [28] of over 100 µM, a TGI [29] of over 100 µM and a TGI [30] of over 100 µM. It also gave a TGI [31] of over 100 µM, a TGI [32] of over 100 µM and a TGI [33] of over 100 µM. The TGI [34] was over 100 µM, the TGI [35] was over 100 µM and the TGI [36] was over 100 µM. It also gave a TGI [37] of over 100 µM, a TGI [38] of over 100 µM and a TGI [39] of over 100 µM. It also gave a TGI [40] of over 100 µM, a TGI [41] of over 100 µM and a TGI [42] of over 100 µM. The TGI [43] was over 100 µM, the TGI [44] was over 100 µM and the TGI [45] was over 100 µM. The TGI [46] was over 100 µM, the TGI [47] was over 100 µM and the TGI [48] was over 100 µM. For the same compound, the TGI [49] was over 100 µM, the TGI [50] was over 100 µM and the TGI [51] was over 100 µM. The TGI [52] was over 100 µM, the TGI [53] was over 100 µM and the TGI [54] was over 100 µM. The TGI [55] was over 100 µM and the TGI [56] was over 100 µM.
For `CCOc1cc(NC(C)=O)ccc1C(=O)NN1C(=O)C(Oc2ccccc2)C1c1ccccc1` (stereo not given), the TGI [1] was over 100 µM, the TGI [2] was over 100 µM and the TGI [3] was over 100 µM. It also gave a TGI [5] of over 100 µM, a TGI [7] of 23.7 µM and a TGI [8] of over 100 µM. The TGI [9] was over 100 µM, the TGI [10] was over 100 µM and the TGI [11] was over 100 µM. It also gave a TGI [12] of over 100 µM, a TGI [13] of over 100 µM and a TGI [14] of over 100 µM. It also gave a TGI [15] of 20.4 µM, a TGI [57] of over 100 µM and a TGI [16] of over 100 µM. The TGI [17] was over 100 µM, the TGI [18] was over 100 µM and the TGI [19] was over 100 µM. It also gave a TGI [20] of over 100 µM, a TGI [21] of over 100 µM and a TGI [22] of over 100 µM. For the same compound, the TGI [23] was over 100 µM, the TGI [24] was over 100 µM and the TGI [25] was over 100 µM. For the same compound, the TGI [27] was over 100 µM, the TGI [28] was over 100 µM and the TGI [29] was over 100 µM. It also gave a TGI [30] of over 100 µM, a TGI [31] of over 100 µM and a TGI [32] of over 100 µM. For the same compound, the TGI [33] was over 100 µM, the TGI [35] was over 100 µM and the TGI [36] was over 100 µM. It also gave a TGI [37] of over 100 µM, a TGI [38] of over 100 µM and a TGI [39] of over 100 µM. It also gave a TGI [40] of over 100 µM, a TGI [41] of over 100 µM and a TGI [42] of over 100 µM. The TGI [43] was over 100 µM, the TGI [44] was over 100 µM and the TGI [58] was over 100 µM. The TGI [45] was over 100 µM, the TGI [46] was over 100 µM and the TGI [47] was over 100 µM. For the same compound, the TGI [48] was over 100 µM, the TGI [49] was over 100 µM and the TGI [59] was over 100 µM. The TGI [51] was over 100 µM, the TGI [52] was over 100 µM and the TGI [53] was over 100 µM. The TGI [54] was over 100 µM, the TGI [55] was over 100 µM and the TGI [56] was over 100 µM.
With `O=C(/C=C/c1ccsc1)c1ccco1` the TGI [1] was 26 µM, the TGI [2] was 42.3 µM and the TGI [3] was over 63.6 µM. For the same compound, the TGI [4] was 24.2 µM, the TGI [5] was over 37.2 µM and the TGI [6] was 20.3 µM. It also gave a TGI [7] of 9.14 µM, a TGI [8] of 27.2 µM and a TGI [9] of 22.8 µM. It also gave a TGI [10] of over 22.2 µM, a TGI [11] of 28.1 µM and a TGI [12] of 24 µM. The TGI [13] was 24 µM, the TGI [14] was 24.4 µM and the TGI [15] was 36 µM. For the same compound, the TGI [57] was 16.1 µM, the TGI [16] was 27.2 µM and the TGI [17] was 20.1 µM. It also gave a TGI [18] of 4.67 µM, a TGI [19] of 36 µM and a TGI [20] of 26.4 µM. It also gave a TGI [21] of 33.4 µM, a TGI [22] of 25.4 µM and a TGI [23] of 33.2 µM. The TGI [25] was 16.6 µM, the TGI [26] was 28.8 µM and the TGI [27] was 38.5 µM. For the same compound, the TGI [29] was 6.32 µM, the TGI [30] was 28.5 µM and the TGI [31] was 26.9 µM. The TGI [32] was 25.2 µM, the TGI [33] was 32.8 µM and the TGI [34] was 11.7 µM. For the same compound, the TGI [35] was 22.8 µM, the TGI [36] was 22.9 µM and the TGI [37] was 30.9 µM. It also gave a TGI [38] of 22.8 µM, a TGI [39] of 27 µM and a TGI [40] of over 56.4 µM. It also gave a TGI [41] of 29.7 µM, a TGI [42] of 14.5 µM and a TGI [43] of 29.6 µM. It also gave a TGI [44] of over 50.3 µM, a TGI [58] of 32.5 µM and a TGI [45] of 26.3 µM. It also gave a TGI [46] of 38.6 µM, a TGI [47] of 26.9 µM and a TGI [48] of 28.6 µM. The TGI [49] was 34.9 µM, the TGI [59] was 38.9 µM and the TGI [50] was 22.7 µM. The TGI [51] was 17.8 µM, the TGI [52] was 29.2 µM and the TGI [53] was 30.6 µM. The TGI [54] was 50.5 µM, the TGI [55] was 40.5 µM and the TGI [56] was 22 µM.
Work on `CC(C)c1ccc(/C(C(=O)O)=C(\O)C(=O)O)cc1` yielded a TGI [1] of over 100 µM, a TGI [2] of over 100 µM and a TGI [3] of over 100 µM. For the same compound, the TGI [4] was over 100 µM, the TGI [5] was over 100 µM and the TGI [6] was over 100 µM. The TGI [7] was over 100 µM, the TGI [8] was over 100 µM and the TGI [9] was over 100 µM. It also gave a TGI [10] of over 100 µM, a TGI [11] of over 100 µM and a TGI [12] of over 100 µM. The TGI [13] was over 100 µM, the TGI [14] was over 100 µM and the TGI [15] was over 100 µM. It also gave a TGI [57] of over 100 µM, a TGI [16] of over 100 µM and a TGI [17] of over 100 µM. The TGI [18] was over 100 µM, the TGI [19] was over 100 µM and the TGI [20] was over 100 µM. The TGI [21] was over 100 µM, the TGI [22] was over 100 µM and the TGI [23] was over 100 µM. It also gave a TGI [24] of over 100 µM, a TGI [25] of over 100 µM and a TGI [26] of over 100 µM. It also gave a TGI [27] of over 100 µM, a TGI [28] of over 100 µM and a TGI [29] of over 100 µM. It also gave a TGI [30] of over 100 µM, a TGI [31] of over 100 µM and a TGI [32] of over 100 µM. For the same compound, the TGI [33] was over 100 µM, the TGI [34] was over 100 µM and the TGI [35] was over 100 µM. The TGI [36] was over 100 µM, the TGI [37] was over 100 µM and the TGI [38] was over 100 µM. The TGI [39] was over 100 µM, the TGI [40] was over 100 µM and the TGI [41] was over 100 µM. For the same compound, the TGI [42] was over 100 µM, the TGI [43] was over 100 µM and the TGI [44] was over 100 µM. The TGI [58] was over 100 µM, the TGI [46] was over 100 µM and the TGI [47] was over 100 µM. For the same compound, the TGI [48] was over 100 µM, the TGI [49] was over 100 µM and the TGI [59] was over 100 µM. The TGI [50] was over 100 µM, the TGI [51] was over 100 µM and the TGI [52] was over 100 µM. It also gave a TGI [53] of over 100 µM, a TGI [54] of over 100 µM and a TGI [55] of over 100 µM. For the same compound, the TGI [56] was over 100 µM.
